# Assay results published in ChEMBL document CHEMBL4304769, “Discovery of Potent and Orally Bioavailable Inverse Agonists of the Retinoic Acid Receptor-Related Orphan Receptor C2” (ACS Med Chem Lett, 2019).
# Test: in vivo
# Details: Wistar Han, rat, iv, 1 mg/kg
row,Vd at 24 h [L/kg],Structure (SMILES)
1,10.2,CCS(=O)(=O)c1ccc(C(NC(=O)Cc2ccccc2)C(=O)Nc2ccc(C(O)(C(F)(F)F)C(F)(F)F)cc2)cc1 (configuration not stated)
2,0.34,CCS(=O)(=O)c1ccc(C(NC(C)=O)C(=O)Nc2cc(-c3cc(C#N)cc(F)c3OC)cs2)cc1 (racemic)

# Test: in vitro
# Details: human, Caco-2
row,Papp [×10⁻⁶ cm/s],Structure (SMILES)
1,0.3,CCS(=O)(=O)c1ccc(C(NC(C)=O)C(=O)Nc2cc(-c3cc(C#N)cc(F)c3OC)cs2)cc1 (racemic)

# Test: physchem
# Details: 1-octanol/PBS buffer, pH 7.4
row,Structure (SMILES),logD
1,CCS(=O)(=O)c1ccc(CC(=O)Nc2cc(-c3cccc(Cl)c3)cs2)cc1,> 4.1
2,CCS(=O)(=O)c1ccc(CC(=O)Nc2ccc(C(C(F)(F)F)C(F)(F)F)cc2)cc1,3.9
3,CCS(=O)(=O)c1ccc(CC(=O)Nc2ccc(-c3cccc(Cl)c3)cc2)cc1,> 4
4,CCS(=O)(=O)c1ccc(CC(=O)Nc2cccc(-c3cccc(Cl)c3)c2)cc1,> 4
5,CCS(=O)(=O)c1ccc(CC(=O)Nc2ccc(C(OC)(C(F)(F)F)C(F)(F)F)cc2)cc1,4
6,CCS(=O)(=O)c1ccc(CC(=O)Nc2ccc(C(O)(C(F)(F)F)C(F)(F)F)cc2)cc1,3.6
7,CCS(=O)(=O)c1ccc(CC(=O)Nc2ccc([C@H](O)C(F)(F)F)cc2)cc1,2.1
8,CCS(=O)(=O)c1ccc(CC(=O)Nc2ccc(C(C)(C)C#N)cc2)cc1,2.5
9,CCS(=O)(=O)c1ccc(CC(=O)Nc2ccc(C(C)C)cc2)cc1,3.5

# Next, values leading:
row,logD,Structure (SMILES)
1,2.9,CCS(=O)(=O)c1ccc(C(NC(=O)Cc2ccnnc2)C(=O)Nc2ccc(C(O)(C(F)(F)F)C(F)(F)F)cc2)cc1 (configuration not stated)
2,2.8,CCS(=O)(=O)c1ccc(C(NC(=O)Cc2ccncn2)C(=O)Nc2ccc(C(O)(C(F)(F)F)C(F)(F)F)cc2)cc1 (configuration not stated)
3,3.3,CCS(=O)(=O)c1ccc(C(NC(=O)Cc2ccccn2)C(=O)Nc2ccc(C(O)(C(F)(F)F)C(F)(F)F)cc2)cc1 (configuration not stated)
4,3.2,CCS(=O)(=O)c1ccc(C(NC(=O)NC)C(=O)Nc2ccc(C(O)(C(F)(F)F)C(F)(F)F)cc2)cc1 (configuration not stated)
5,4,CCS(=O)(=O)c1ccc(C(NC(=O)Cc2ccccc2)C(=O)Nc2ccc(C(O)(C(F)(F)F)C(F)(F)F)cc2)cc1 (configuration not stated)
6,3.6,CCS(=O)(=O)c1ccc(C(NC(=O)OC)C(=O)Nc2ccc(C(O)(C(F)(F)F)C(F)(F)F)cc2)cc1 (configuration not stated)
7,> 4,CCS(=O)(=O)c1ccc(C(NC(=O)c2ccccc2)C(=O)Nc2ccc(C(O)(C(F)(F)F)C(F)(F)F)cc2)cc1 (configuration not stated)
8,2.5,CCS(=O)(=O)c1ccc(C(NC(=O)Cc2cccnn2)C(=O)Nc2ccc(C(O)(C(F)(F)F)C(F)(F)F)cc2)cc1 (configuration not stated)
9,> 4,CCS(=O)(=O)c1ccc(C(NC(=O)CCc2ccccc2)C(=O)Nc2ccc(C(O)(C(F)(F)F)C(F)(F)F)cc2)cc1 (configuration not stated)
10,> 4,CCS(=O)(=O)c1ccc(C(NC(=O)CC(C)C)C(=O)Nc2ccc(C(O)(C(F)(F)F)C(F)(F)F)cc2)cc1 (configuration not stated)
11,2.8,CCS(=O)(=O)c1ccc(C(N)C(=O)Nc2ccc(C(O)(C(F)(F)F)C(F)(F)F)cc2)cc1 (configuration not stated)
12,3.3,CCS(=O)(=O)c1ccc(C(NC(=O)CC(C)(C)O)C(=O)Nc2ccc(C(O)(C(F)(F)F)C(F)(F)F)cc2)cc1 (configuration not stated)
13,2.7,CCS(=O)(=O)c1ccc(C(NS(C)(=O)=O)C(=O)Nc2ccc(C(O)(C(F)(F)F)C(F)(F)F)cc2)cc1 (configuration not stated)

# Test: in vivo
# Details: Wistar Han, rat, po, 2 mg/kg
row,bioavailability at 24 h [%],Structure (SMILES)
1,5,CCS(=O)(=O)c1ccc(C(NC(=O)Cc2ccccc2)C(=O)Nc2ccc(C(O)(C(F)(F)F)C(F)(F)F)cc2)cc1 (configuration not stated)
2,19,CCS(=O)(=O)c1ccc(C(NC(C)=O)C(=O)Nc2cc(-c3cc(C#N)cc(F)c3OC)cs2)cc1 (racemic)
